# Data: PubChem BioAssay AID1845204 (Molecular Pharmacology Branch, DTP, NCI, 2023)
# “And” between values parts separate entries of the source, which are not always exact repeats. Equal entries are not always repeated.
# System: HSSY-II tumor spheroid viability
# Experiment: Anticancer human tumor HSSY-II cell line growth inhibition;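 further: spheroids exposed to compounds for seven days before reading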;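 on viability, T/C: percent of DMSO vehicle control viability so 100% = untreated level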
# Details: spheroids with HUVEC and MSC; for viability, T/C: stronger effect = lower value
# Method in brief: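 Single agents and combinations were tested on spheroids built from tumor cells plus HUVEC and hMSC, at half-log dilutions starting at or near clinical Cmax, else 10 microM; final DMSO 0.25% (v/v).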
# [1] = curve of first compound, second compound 0.003 µM
# [2] = curve of first compound, second compound 0.00949 µM
# [3] = curve of first compound, second compound 0.03 µM
# [4] = curve of first compound, second compound 0.0949 µM
# [5] = curve of first compound, second compound 0.3 µM
# [6] = second compound 0.003 µM, first compound 0.0316 µM
# [7] = second compound 0.003 µM, first compound 0.1 µM
# [8] = second compound 0.003 µM, first compound 0.316 µM
# [9] = second compound 0.003 µM, first compound 1 µM
# [10] = second compound 0.003 µM, first compound 3.16 µM
# [11] = second compound 0.003 µM, first compound 10 µM
# [12] = second compound 0.00949 µM, first compound 0.0316 µM
# [13] = second compound 0.00949 µM, first compound 0.1 µM
# [14] = second compound 0.00949 µM, first compound 0.316 µM
# [15] = second compound 0.00949 µM, first compound 1 µM
# [16] = second compound 0.00949 µM, first compound 3.16 µM
# [17] = second compound 0.00949 µM, first compound 10 µM
# [18] = second compound 0.03 µM, first compound 0.0316 µM
# [19] = second compound 0.03 µM, first compound 0.1 µM
# [20] = second compound 0.03 µM, first compound 0.316 µM
# [21] = second compound 0.03 µM, first compound 1 µM
# [22] = second compound 0.03 µM, first compound 3.16 µM
# [23] = second compound 0.03 µM, first compound 10 µM
# [24] = second compound 0.0949 µM, first compound 0.0316 µM
# [25] = second compound 0.0949 µM, first compound 0.1 µM
# [26] = second compound 0.0949 µM, first compound 0.316 µM
# [27] = second compound 0.0949 µM, first compound 1 µM
# [28] = second compound 0.0949 µM, first compound 3.16 µM
# [29] = second compound 0.0949 µM, first compound 10 µM
# [30] = second compound 0.3 µM, first compound 0.0316 µM
# [31] = second compound 0.3 µM, first compound 0.1 µM
# [32] = second compound 0.3 µM, first compound 0.316 µM
# [33] = second compound 0.3 µM, first compound 1 µM
# [34] = second compound 0.3 µM, first compound 3.16 µM
# [35] = second compound 0.3 µM, first compound 10 µM
smiles,measurement,setting,value
Cc1cc(C)c(CNC(=O)c2cc(-c3ccc(CN4CCOCC4)cc3)cc3c2cnn3C2CCCC2)c(=O)[nH]1 + CC[C@@]1(O)C(=O)OCc2c1cc1n(c2=O)Cc2cc3c(CN(C)C)c(O)ccc3nc2-1,IC50,[1],> 10000 nM
same,IC50,[2],< 31.6 nM
same,IC50,[3],< 31.6 nM
same,IC50,[4],< 31.6 nM
same,IC50,[5],< 31.6 nM
same,"viability, T/C",[6],79.2%
same,"viability, T/C",[7],81%
same,"viability, T/C",[8],81.3%
same,"viability, T/C",[9],81.9%
same,"viability, T/C",[10],79.1%
same,"viability, T/C",[11],64%
same,"viability, T/C",[12],39.4%
same,"viability, T/C",[13],40.1%
same,"viability, T/C",[14],42.9%
same,"viability, T/C",[15],47.4%
same,"viability, T/C",[16],38%
same,"viability, T/C",[17],49.7%
same,"viability, T/C",[18],6.06%
same,"viability, T/C",[19],7.28%
same,"viability, T/C",[20],7.77%
same,"viability, T/C",[21],9.15%
same,"viability, T/C",[22],9.78%
same,"viability, T/C",[23],11.9%
same,"viability, T/C",[24],6.68%
same,"viability, T/C",[25],11.9%
same,"viability, T/C",[26],7.28%
same,"viability, T/C",[27],7.31%
same,"viability, T/C",[28],8.02%
same,"viability, T/C",[29],9.19%
same,"viability, T/C",[30],4.56%
same,"viability, T/C",[31],4.19%
same,"viability, T/C",[32],4.75%
same,"viability, T/C",[33],5.11%
same,"viability, T/C",[34],6.37%
same,"viability, T/C",[35],7.28%
COc1ccc([C@@H](O)c2cc(-c3ncnc4cc(N5CCOCC5)ccc34)c(F)cc2Cl)nn1 + CC[C@@]1(O)C(=O)OCc2c1cc1n(c2=O)Cc2cc3c(CN(C)C)c(O)ccc3nc2-1,IC50,[1],1380 nM
same,IC50,[2],902 nM
same,IC50,[3],< 31.6 nM
same,IC50,[4],< 31.6 nM
same,IC50,[5],< 31.6 nM
same,"viability, T/C",[6],88.8%
same,"viability, T/C",[7],89.5%
same,"viability, T/C",[8],74.8%
same,"viability, T/C",[9],61.5%
same,"viability, T/C",[10],26.5%
same,"viability, T/C",[11],8.32%
same,"viability, T/C",[12],62.6%
same,"viability, T/C",[13],65.5%
same,"viability, T/C",[14],63.8%
same,"viability, T/C",[15],48.6%
same,"viability, T/C",[16],11.7%
same,"viability, T/C",[17],3.18%
same,"viability, T/C",[18],10.3%
same,"viability, T/C",[19],12.2%
same,"viability, T/C",[20],10.3%
same,"viability, T/C",[21],6.74%
same,"viability, T/C",[22],2.41%
same,"viability, T/C",[23],1.53%
same,"viability, T/C",[24],9.13%
same,"viability, T/C",[25],8.32%
same,"viability, T/C",[26],7.14%
same,"viability, T/C",[27],2.81%
same,"viability, T/C",[28],1.55%
same,"viability, T/C",[29],1.22%
same,"viability, T/C",[30],6.23%
same,"viability, T/C",[31],5.53%
same,"viability, T/C",[32],4.4%
same,"viability, T/C",[33],2.36%
same,"viability, T/C",[34],1.09%
same,"viability, T/C",[35],0.71%
O=C(c1cc(Cc2n[nH]c(=O)c3ccccc23)ccc1F)N1CCN(C(=O)C2CC2)CC1,"viability, T/C",compound 0.0949 µM,99.1% and 104% and 93.2%
same,"viability, T/C",compound 0.3 µM,91.7% and 90.6% and 98.3%
same,"viability, T/C",compound 0.949 µM,82.3% and 86.8% and 90.7%
same,"viability, T/C",compound 3 µM,70.6% and 67.4% and 65.8%
same,"viability, T/C",compound 9.49 µM,30.7% and 11.5% and 17.9%
same,IC50,curve of compound,6160 nM and 4280 nM and 4380 nM
CC1COCCN1c1cc(-c2ccnn2C)c2ccnc(-c3ccn[nH]3)c2n1 (stereo unspecified) + Cn1nnc2c(C(N)=O)ncn2c1=O,IC50,"curve of first compound, second compound 1 µM",< 31.6 nM
same,IC50,"curve of first compound, second compound 3.16 µM",< 31.6 nM
same,IC50,"curve of first compound, second compound 10 µM",< 31.6 nM
same,IC50,"curve of first compound, second compound 31.6 µM",< 31.6 nM
same,IC50,"curve of first compound, second compound 100 µM",< 31.6 nM
same,"viability, T/C","second compound 1 µM, first compound 0.0316 µM",29%
same,"viability, T/C","second compound 1 µM, first compound 0.1 µM",6.4%
same,"viability, T/C","second compound 1 µM, first compound 0.316 µM",2.45%
same,"viability, T/C","second compound 1 µM, first compound 1 µM",1.92%
same,"viability, T/C","second compound 1 µM, first compound 3.16 µM",1.78%
same,"viability, T/C","second compound 1 µM, first compound 10 µM",2.4%
same,"viability, T/C","second compound 3.16 µM, first compound 0.0316 µM",25.1%
same,"viability, T/C","second compound 3.16 µM, first compound 0.1 µM",6.11%
same,"viability, T/C","second compound 3.16 µM, first compound 0.316 µM",2.71%
same,"viability, T/C","second compound 3.16 µM, first compound 1 µM",2.03%
same,"viability, T/C","second compound 3.16 µM, first compound 3.16 µM",1.93%
same,"viability, T/C","second compound 3.16 µM, first compound 10 µM",2.28%
same,"viability, T/C","second compound 10 µM, first compound 0.0316 µM",19%
same,"viability, T/C","second compound 10 µM, first compound 0.1 µM",6.18%
same,"viability, T/C","second compound 10 µM, first compound 0.316 µM",2.63%
same,"viability, T/C","second compound 10 µM, first compound 1 µM",2%
same,"viability, T/C","second compound 10 µM, first compound 3.16 µM",1.88%
same,"viability, T/C","second compound 10 µM, first compound 10 µM",2.59%
same,"viability, T/C","second compound 31.6 µM, first compound 0.0316 µM",16.2%
same,"viability, T/C","second compound 31.6 µM, first compound 0.1 µM",4.45%
same,"viability, T/C","second compound 31.6 µM, first compound 0.316 µM",2.43%
same,"viability, T/C","second compound 31.6 µM, first compound 1 µM",2%
same,"viability, T/C","second compound 31.6 µM, first compound 3.16 µM",2.1%
same,"viability, T/C","second compound 31.6 µM, first compound 10 µM",2.35%
same,"viability, T/C","second compound 100 µM, first compound 0.0316 µM",6.2%
same,"viability, T/C","second compound 100 µM, first compound 0.1 µM",4.15%
same,"viability, T/C","second compound 100 µM, first compound 0.316 µM",2.65%
same,"viability, T/C","second compound 100 µM, first compound 1 µM",2.04%
same,"viability, T/C","second compound 100 µM, first compound 3.16 µM",1.79%
same,"viability, T/C","second compound 100 µM, first compound 10 µM",1.82%
